Test results taken from ChEMBL document CHEMBL1154337, “Synthesis of a novel C2/C2'-aryl-substituted pyrrolo[2,1-c][1,4]benzodiazepine dimer prodrug with improved water solubility and reduced DNA reaction rate” (Bioorg Med Chem Lett, 2009).

Tests used:
K562 = assay: Cytotoxicity against human K562 cells by alamar blue assay; format: functional
MCF7 = assay: Cytotoxicity against human MCF7 cells by alamar blue assay; format: functional
Nucleic Acid = assay: Induction of Escherichia coli pUC18 DNA interstrand crosslinking activity assessed as time required to reach peak; format: nucleic-acid assay
A549 = assay: Cytotoxicity against human A549 cells by alamar blue assay; format: functional
[1] = Cytotoxicity against human LNCaP-FGC cells by alamar blue assay; format: functional; details: LNCaP-Clone-FGC
A2780 = assay: Cytotoxicity against human A2780 cells by alamar blue assay; format: functional
LOX IMVI = assay: Cytotoxicity against human LOXIMVI cells by alamar blue assay; format: functional
RPMI-8226 = assay: Cytotoxicity against human RPMI8226 cells by alamar blue assay; format: functional
DU-145 = assay: Cytotoxicity against human DU145 cells by alamar blue assay; format: functional

| SMILES | GI50 (K562) [nM] | GI50 (MCF7) [nM] | Activity (Nucleic Acid) [h] | GI50 (A549) [nM] | GI50 [1] [nM] | GI50 (A2780) [nM] | GI50 (LOX IMVI) [nM] | GI50 (RPMI-8226) [nM] | GI50 (DU-145) [nM] |
| --- | --- | --- | --- | --- | --- | --- | --- | --- | --- |
| C=C1C[C@H]2C=Nc3cc(OCCCOc4cc5c(cc4OC)C(=O)N4CC(=C)C[C@H]4C=N5)c(OC)cc3C(=O)N2C1 [SJG-136] | 0.419 | – | – | – | – | – | – | – | – |
| COc1ccc(C2=CN3C(=O)c4cc(OC)c(OCCCOc5cc6c(cc5OC)C(=O)N5C=C(c7ccc(OC)cc7)C[C@H]5C=N6)cc4N=C[C@@H]3C2)cc1 | 0.013 | 0.0186 | 2 | 0.033 | 0.0027 | 0.0024 | 0.0225 | 0.0051 | 0.0154 |
